Counter-ions that a name gives are not always drawn.
What was measured:
Human plasma SSAO = target: T1, Human plasma SSAO (Homo sapiens, UniProt Q16853); test: VAP-1 enzyme (SSAO) activity in human plasma, radiochemical-enzyme assay with 14C-benzylamine; format: biochemical
T1 construct: The enzyme suspension prepared from blood plasma was pre-incubated with Compound A; from tissue; host or cells: human blood plasma
T1 sequence (Q16853 29-763 limits assumed): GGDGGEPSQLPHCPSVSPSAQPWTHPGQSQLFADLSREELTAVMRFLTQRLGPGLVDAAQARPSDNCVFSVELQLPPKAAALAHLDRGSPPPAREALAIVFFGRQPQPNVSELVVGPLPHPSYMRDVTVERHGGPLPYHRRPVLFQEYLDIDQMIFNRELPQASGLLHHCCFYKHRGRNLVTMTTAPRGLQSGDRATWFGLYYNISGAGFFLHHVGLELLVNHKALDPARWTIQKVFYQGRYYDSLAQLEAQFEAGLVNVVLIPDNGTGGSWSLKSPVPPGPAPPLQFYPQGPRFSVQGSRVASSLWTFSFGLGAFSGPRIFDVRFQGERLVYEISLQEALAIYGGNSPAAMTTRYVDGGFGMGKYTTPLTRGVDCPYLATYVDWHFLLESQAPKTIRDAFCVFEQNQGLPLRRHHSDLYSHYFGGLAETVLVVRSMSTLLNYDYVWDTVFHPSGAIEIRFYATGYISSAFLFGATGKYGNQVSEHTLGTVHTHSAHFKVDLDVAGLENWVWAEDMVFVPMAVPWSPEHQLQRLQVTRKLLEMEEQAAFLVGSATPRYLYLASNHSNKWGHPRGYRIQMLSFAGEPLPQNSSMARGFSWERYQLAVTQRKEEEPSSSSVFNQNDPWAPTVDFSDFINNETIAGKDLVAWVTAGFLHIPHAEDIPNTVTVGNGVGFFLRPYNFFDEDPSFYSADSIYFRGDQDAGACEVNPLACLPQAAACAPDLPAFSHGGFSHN
Protocol: (§1) VAP-1 enzyme (SSAO) activity in both human and rat plasma was determined by a radiochemical-enzyme assay using ^14C-benzylamine as artificial substrate. The enzyme suspension prepared from blood plasma was pre-incubated with Compound A in 96-well microplate at room temperature for 30 min. The enzyme suspension was then incubated with ^14C-benzylamine (2×10^−5 mol/l final concentration) in a final volume of 50 μl at 37° C. for 1 hour. The enzyme reaction was terminated by adding 2 mol/l (50 μl) citric acid. The oxidized products were directly extracted into a 200 μl toluene scintillator, and its radioactivity was measured by a scintillation spectrometer. Monoamine oxidase (MAO) and diamine oxidase (DAO, histaminase) activities were also determined by similar method using ^14C-phenylethylamine and ^14C-putrescine as substrate, respectively. Cloned DAO from cDNA libraries was used in human DAO assay. Inhibition activity was expressed as IC50 (μmol/l) value.

Rat plasma SSAO = target: T2, Rat plasma SSAO (Rattus norvegicus, UniProt O08590); test: VAP-1 enzyme (SSAO) activity in rat plasma, radiochemical-enzyme assay with 14C-benzylamine; format: biochemical
T2 construct: The enzyme suspension prepared from blood plasma was pre-incubated with Compound A; from tissue; host or cells: rat blood plasma
T2 sequence (O08590 29-763 limits assumed): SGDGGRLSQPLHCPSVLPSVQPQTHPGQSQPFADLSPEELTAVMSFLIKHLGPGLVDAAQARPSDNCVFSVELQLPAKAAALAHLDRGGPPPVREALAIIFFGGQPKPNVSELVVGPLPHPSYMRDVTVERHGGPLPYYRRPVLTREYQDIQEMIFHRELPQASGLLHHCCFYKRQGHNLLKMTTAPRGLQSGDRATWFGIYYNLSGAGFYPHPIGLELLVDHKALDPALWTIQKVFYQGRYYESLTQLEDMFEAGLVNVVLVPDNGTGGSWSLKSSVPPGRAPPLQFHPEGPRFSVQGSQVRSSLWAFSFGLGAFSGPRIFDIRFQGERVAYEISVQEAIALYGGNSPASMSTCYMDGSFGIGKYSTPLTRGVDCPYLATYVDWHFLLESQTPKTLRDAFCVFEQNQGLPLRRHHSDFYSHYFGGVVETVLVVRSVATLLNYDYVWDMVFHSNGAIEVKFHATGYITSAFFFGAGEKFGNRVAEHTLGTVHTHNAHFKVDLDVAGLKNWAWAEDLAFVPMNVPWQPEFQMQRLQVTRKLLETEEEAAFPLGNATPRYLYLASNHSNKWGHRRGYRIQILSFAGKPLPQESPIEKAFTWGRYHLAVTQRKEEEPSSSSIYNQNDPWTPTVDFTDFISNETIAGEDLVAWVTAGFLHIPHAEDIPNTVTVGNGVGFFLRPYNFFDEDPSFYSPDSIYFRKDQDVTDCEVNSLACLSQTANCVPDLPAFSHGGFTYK
Protocol: as §1

plasma SSAO = target: T3, plasma SSAO (Rattus norvegicus, UniProt O08590); test: Plasma SSAO activity in STZ-induced diabetic rats after treatment; format: in vivo
T3 construct: from tissue; host or cells: plasma of STZ-induced diabetic rats
T3 sequence (O08590 29-763 limits assumed): T2 sequence (O08590 29-763 limits assumed)
Protocol: Diabetes in rat was induced with an intraperitoneal (i.p.) injection of 65 mg/ml/kg of streptozotocin (STZ) in 2 mmol/l citrate buffer (pH 4.5) after a 20-h fast. At the same time control rat were injected with an equal volume of 2 mmol/l citrate buffer. Plasma glucose level was checked by a calorimetric method. At day 3 of STZ treatment, the rat was diagnosed with diabetes showing a plasma glucose level of 350 mg/dl.
The treatment of Compound A was given daily from 2 weeks after STZ treatment for 2 weeks. At 24 hrs after final treatment of Compound A, the vascular permeability in oculus was investigated based on the leakage of dye into the vitreous 30 min after intravenous injection of fluorescein solution (40 mg/ml/kg). Permeability was expressed as vitreous/plasma ratio of fluorescein concentration measured by a fluorophotometer. At the same time, the plasma SSAO activity was checked by the radiochemical-enzyme assay using ^14C-benzylamine (2×10^−5 mol/l final concentration) as substrate.

Row | melting point [°C] | Structure (SMILES) | also measured
1 | 190.5 to 192 | CC(=O)Nc1nc(CCc2ccc(CC(=N)N)cc2)cs1 (as salt: hydrochloride) [Production Example 59, N-(4-{2-[4-(2-amino-2-iminoethyl)phenyl]ethyl}-1,3-thiazol-2-yl)acetamide] | 
2 | 216.5 to 218 | CC(=O)Nc1nc(CCc2ccc(NC(=N)NN)cc2)cs1 [Production Example 58, N-{4-[2-(4-{[hydrazino(imino)methyl]amino}phenyl)ethyl]-1,3-thiazol-2-yl}acetamide] | 
3 | 108 to 109.5 | CC(=O)Nc1nc(CCc2ccc(C(=O)NC(=N)N)cc2)c(Cc2ccc(S(C)(=O)=O)cc2)s1 [Production Example 106, 4-(2-{2-(acetylamino)-5-[4-(methylsulfonyl)benzyl]-1,3-thiazol-4-yl}ethyl)-N-[amino(imino)methyl]benzamide] | 

More lines, now with the values behind:

Row | Structure (SMILES) | melting point [°C] | also measured
4 | CC(=O)Nc1nc(CCc2ccc(NC(=N)N)cc2)c(C(=O)NCc2ccc([N+](=O)[O-])cc2)s1.Cl | 138 to 140 | 
5 | CC(=O)Nc1nc(CCc2ccc(C(=N)N)cc2)cs1.Cl | 229.5 to 231 | 
6 | CC(=O)Nc1nc(CCc2ccc(NC(=N)N)cc2)cs1 [Compound A, N-{4-[2-(4-{[amino(imino)methyl]amino}phenyl)ethyl]-1,3-thiazol-2-yl}acetamide] |  | Inhibition of enzyme activity of human plasma SSAO (in words) (Human plasma SSAO): completely inhibited; Inhibition of enzyme activity of rat plasma SSAO (in words) (Rat plasma SSAO): completely inhibited; Plasma SSAO activity (plasma SSAO; STZ diabetic rats, daily treatment for 2 weeks from 2 weeks after STZ, 14C-benzylamine 2×10^−5 mol/l, mean±S.E.M., 10 rats): 2.51 ± 0.26 pmol/min/mL; Effect on increased plasma SSAO activity in diabetic rats (in words) (plasma SSAO; diabetic rats at 4 weeks after STZ treatment): dose-dependent inhibition of the increased plasma SSAO activity
7 | CC(=O)Nc1nc(CCc2ccc(NC3=NCCS3)cc2)cs1 [Production Example 2, N-(4-(2-(4-(4,5-dihydro-1,3-thiazol-2-ylamino)phenyl)ethyl)-1,3-thiazol-2-yl)acetamide] | 218 to 219.5 | 
8 | CC(=O)Nc1nc(CCc2ccc(CON)cc2)cs1 [Production Example 16, N-[4-(2-{4-[(aminooxy)methyl]phenyl}ethyl)-1,3-thiazol-2-yl]acetamide] | 130 to 130.5 | 
9 | CC(=O)Nc1nc(CCc2ccc(NC(=N)N)cc2)c(Cc2ccc(S(C)(=O)=O)cc2)s1 [Production Example 48, N-{4-[2-(4-{[amino(imino)methyl]amino}phenyl)ethyl]-5-[4-(methylsulfonyl)benzyl]-1,3-thiazol-2-yl}acetamide] | 228 to 229.5 | 
10 | CC(=N)Nc1ccc(CCc2nc(NC(C)=O)sc2Cc2ccc(S(C)(=O)=O)cc2)cc1 [Production Example 56, N-{4-{2-[4-(ethanimidoylamino)phenyl]ethyl}-5-[4-(methylsulfonyl)benzyl]-1,3-thiazol-2-yl}acetamide] | 81.5 to 83 | 

From patent US7442715B2, “Thiazole derivatives” (Astellas Pharma Inc., priority 2003, dated 2008)
